This is an account of results in patent publication US7989451B2, “Tricyclic 1,2,4-triazine oxides and compositions for therapeutic use in cancer treatments” (Auckland Uniservices Limited, priority 2005, dated 2011).

Molecules are shown by their SMILES. Structures can show the parent of a compound that is named as a salt.

One may read the melting point as the temperature, or range, at which the solid turns liquid. Turning to `CCc1n[n+]([O-])c2cc3c(cc2[n+]1[O-])CC(CCN1CCOCC1)C3` (centres unmarked) (as salt: hydrochloride) [Compound 164, 3-Ethyl-7-[2-(4-morpholinyl)ethyl]-7,8-dihydro-6H-indeno[5,6-e][1,2,4]triazine 1,4-Dioxide], the melting point was 131 to 133 °C.

`[O-][n+]1nc(NCCN2CCCCC2)nc2ccc3c(c21)CCC3` [Compound 12, N-[2-(1-Piperidinyl)ethyl]-8,9-dihydro-7H-indeno[5,4-e][1,2,4]triazin-3-amine 1-Oxide] returned a melting point of 152 to 155 °C.

`CCN1Cc2cc3c(cc2C1)[n+]([O-])c(N)n[n+]3[O-]` (as salt: hydrochloride) [Compound 250, 7-Ethyl-7,8-dihydro-6H-[1,2,4]triazino[5,6-f]isoindol-3-amine 1,4-Dioxide] showed a melting point of 230 °C.

With `[O-][n+]1nc(NCCCN2CCOCC2)nc2cc3c(cc21)CCCC3` [Compound 179, N-[3-(4-Morpholinyl)propyl]-6,7,8,9-tetrahydronaphtho[2,3-e][1,2,4]triazin-3-amine 1-Oxide], the melting point fell in the range of 115 to 116 °C.

`COCCN(C)CCNc1nc2cc3c(cc2[n+]([O-])n1)CCC3` [Compound 30, N^1-(1-Oxido-7,8-dihydro-6H-indeno[5,6-e][1,2,4]triazin-3-yl)-N^2-(2-methoxyethyl)-N^2-methyl-1,2-ethanediamine] had a melting point of 107 to 110 °C.

For the compound `Nc1nc2ccc3c(c2[n+]([O-])n1)CCCO3` [Compound 234, 9,10-Dihydro-8H-chromeno[6,5-e][1,2,4]triazin-3-amine 1-Oxide], the melting point is 275 to 279 °C (dec.).

The compound `[O-][n+]1nc(NCCCN2CCOCC2)nc2cc3c(cc21)OCCC3` [Compound 243, N-[3-(4-Morpholinyl)propyl]-7,8-dihydro-6H-chromeno[6,7-e][1,2,4]triazin-3-amine 1-Oxide] displayed a melting point of 151 to 152 °C.

Consider `CN(C)CCNc1nc2cc3c(cc2[n+]([O-])n1)CCCC3` [Compound 177, N^1-(1-Oxido-6,7,8,9-tetrahydronaphtho[2,3-e][1,2,4]triazin-3-yl)-N^2,N^2-dimethyl-1,2-ethanediamine], for which the melting point lay in the range of 149 to 151 °C.

As for `Nc1nc2ccc3c(c2[n+]([O-])n1)CCC3` [Compound 4, 8,9-Dihydro-7H-indeno[5,4-e][1,2,4]triazin-3-amine 1-Oxide], the melting point lay in the range of 270 to 274 °C.

In turn, `CCN1Cc2cc3nc(N)n[n+]([O-])c3cc2C1` [Compound 249, 7-Ethyl-7,8-dihydro-6H-[1,2,4]triazino[5,6-f]isoindol-3-amine 1-Oxide] returned a melting point of 218 °C.

With `CN(C)C1Cc2cc3nc(N)n[n+]([O-])c3cc2C1` (centres unmarked) [Compound 111, N^7,N^7-Dimethyl-7,8-dihydro-6H-indeno[5,6-e][1,2,4]triazine-3,7-diamine 1-Oxide], the melting point lay in the range of 212 to 216 °C.

Compound `CC1Cc2cc3nc(NCCCN4CCOCC4)n[n+]([O-])c3cc2C1` (centres unmarked) [Compound 98, 7-Methyl-N-[3-(4-morpholinyl)propyl]-7,8-dihydro-6H-indeno[5,6-e][1,2,4]triazin-3-amine 1-Oxide] came in with a melting point of 138 to 140 °C.

`CCc1n[n+]([O-])c2c3c(ccc2[n+]1[O-])CCN(C)C3` [Compound 265, 3-Ethyl-9-methyl-7,8,9,10-tetrahydro[1,2,4]triazino[5,6-h]isoquinoline 1,4-Dioxide] came in with a melting point of 117 to 121 °C.

Turning to `CN(C)CCNc1nc2cc3c(cc2[n+]([O-])n1)OCCC3` [Compound 241, N^1,N^1-Dimethyl-N^2-(1-oxido-7,8-dihydro-6H-chromeno[6,7-e][1,2,4]triazin-3-yl)-1,2-ethanediamine], the melting point lay within 150 to 152 °C.

For the compound `[O-][n+]1nc(CCCO)nc2cc3c(cc21)CCC3` [Compound 70, 3-(1-Oxido-7,8-dihydro-6H-indeno[5,6-e][1,2,4]triazin-3-yl)-1-propanol], the melting point was 131 to 133 °C.

Consider `CCc1nc2ccc3c(c2[n+]([O-])n1)CN(C)CC3` [Compound 264, 3-Ethyl-9-methyl-7,8,9,10-tetrahydro[1,2,4]triazino[5,6-h]isoquinoline 1 Oxide], for which the melting point is 99 to 102 °C.

Compound `CC(C)(C)[Si](C)(C)OCC1Cc2cc3nc(N)n[n+]([O-])c3cc2C1` (centres unmarked) came in with a melting point of 169 to 171 °C.

In the case of `CN(C)CCNc1nc2cc3c(cc2[n+]([O-])n1)OCO3` [Compound 223, N^1,N^1-Dimethyl-N^2-(1-oxido[1,3]dioxolo[4,5-g][1,2,4]benzotriazin-3-yl)-1,2-ethanediamine], the melting point is 192 to 194 °C.

As for `CN1CCc2cc3c(cc2C1)nc(Cl)n[n+]3[O-]` [Compound 257, 3-Chloro-7-methyl-6,7,8,9-tetrahydro[1,2,4]triazino[6,5-g]isoquinoline 1-Oxide], the melting point is 179 °C (dec.).

`Nc1nc2cc3c(cc2[n+]([O-])n1)CCC3` [Compound 19, 7,8-Dihydro-6H-indeno[5,6-e][1,2,4]triazin-3-amine 1-Oxide] registered a melting point of 270 to 272 °C.
